In US10189839B2, “Tricyclic imidazole compounds as inhibitors of tryptophan hydroxylase” (ACTELION PHARMACEUTICALS LTD, priority 2013, dated 2019):

The compounds below were run against T1, full length human TPH1 (Homo sapiens, UniProt P17752) (assay: Biochemical in vitro assay using fluorescence readout (TPH1 enzyme activity)). Conditions: Table 1, mean where determined several times.
T1 construct: To generate the enzyme, full length human TPH1 is cloned into the plasmid pET20b(+); made in house; host or cells: E. coli
T1 sequence (P17752 1-444): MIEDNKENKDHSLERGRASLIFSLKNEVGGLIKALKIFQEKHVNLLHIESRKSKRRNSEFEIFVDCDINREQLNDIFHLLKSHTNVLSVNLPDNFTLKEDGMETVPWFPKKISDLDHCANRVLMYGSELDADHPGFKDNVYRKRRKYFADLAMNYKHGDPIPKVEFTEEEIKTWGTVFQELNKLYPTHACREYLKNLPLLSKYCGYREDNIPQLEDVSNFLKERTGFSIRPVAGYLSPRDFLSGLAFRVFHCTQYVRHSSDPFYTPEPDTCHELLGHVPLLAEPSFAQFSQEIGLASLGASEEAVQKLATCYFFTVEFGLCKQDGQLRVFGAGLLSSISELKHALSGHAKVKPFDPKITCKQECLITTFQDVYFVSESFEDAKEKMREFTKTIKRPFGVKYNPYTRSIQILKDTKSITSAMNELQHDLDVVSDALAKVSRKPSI
Excerpt: Inhibitory activities on tryptophan hydroxylase 1 have been measured for each example compound using the following procedure:
Biochemical In Vitro Assay Using Fluorescence Readout
To generate the enzyme, full length human TPH1 is cloned into the plasmid pET20b(+) (Novagen) and expressed in E. coli. The bacterial cells are ruptured by sonication on ice and the lysate is cleared by centrifugation. The resulting protein in the pellet is re-extracted and TPH1 is purified from the obtained lysate by affinity chromatography using a pterin cosubstrate analog immobilized to the resin of the column. The protein is further purified by size exclusion chromatography to remove protein aggregates. The activity of TPH1 is determined by using a fluorescence assay. The enzyme activity assay is carried out at 15° C. with atmosphere oxygen for the duration of 60 minutes in a volume of 64 μl. The reaction is carried out in a 0.1M Tris-HCl buffer, adjusted to pH 7.6, containing 1 mM DTT, 0.2 mg/ml catalase, 100 μM (±)-6-methyl-5,6,7,8-tetrahydropterine dihydrochloride, 40 μM L-tryptophan, and 40-80 nM of TPH1. The reaction is started by bringing together L-tryptophan with all the other reaction substituents and stopped by quenching with perchloric acid (HClO4). The amount of 5-hydroxy-L-tryptophan produced during the enzymatic reaction is determined by fluorescence readout. Fluorescence, as determined at 540 nm when excited at 300 nm wavelength, increases proportionally to the 5-hydroxy-L-tryptophan formed. Compounds are prepared as 10 mM stock solution in DMSO, then diluted in 384-well plates using DMSO followed by a transfer of the dilutions into the assay plate. Fluorescence is measured for each well and the fluorescence at 540 nm wavelength is compared to the fluorescence of the vehicle in place of compound. Inhibitory activities of example compounds with respect to the TPH1 protein are determined by calculating the IC50 value (the concentration of compound needed to inhibit 50% of the enzyme activity). The calculated IC50 values may fluctuate depending on the daily biochemical assay performance. Fluctuations of this kind are known to those skilled in the art. In the case where IC50 values have been determined several times for the same compound, the mean is given.

Row | IC50 [µM] | SMILES
1 | 0.074 | CCc1nc(C)ccc1OCC(=O)N1CCc2nc3n(c2C1c1ccc(C2CC2)cc1F)CCN(C(=O)OC(C)(C)C)C3 (stereo not drawn) [Example 5.2.1, tert-butyl 1-(4-cyclopropyl-2-fluorophenyl)-2-(2-((2-ethyl-6-methylpyridin-3-yl)oxy)acetyl)-1,2,3,4,8,9-hexahydropyrido[4′,3′:4,5]imidazo[1,2-a]pyrazine-7(6H)-carboxylate]
2 | 0.015 | Cc1ccc(C2c3c(nc4n3CCS4)CCN2C(=O)COc2ccc(C(=O)NC3CC3)nc2Cl)c(F)c1F (stereo not drawn) [Example 4.4.2, 6-chloro-N-cyclopropyl-5-(2-(5-(2,3-difluoro-4-methylphenyl)-2,3,7,8-tetrahydrothiazolo[2′,3′:2,3]imidazo[4,5-c]pyridin-6(5H)-yl)-2-oxoethoxy)picolinamide]
3 | 0.31 | Cc1ccc(C2c3c(nc4n3CCN(C(=O)OC(C)(C)C)C4)CCN2C(=O)COc2ccc(CN3CCOCC3)cc2Cl)c(F)c1 (stereo not drawn) [Example 5.12.1, tert-butyl 2-(2-(2-chloro-4-(morpholinomethyl)phenoxy)acetyl)-1-(2-fluoro-4-methylphenyl)-1,2,3,4,8,9-hexahydropyrido[4′,3′:4,5]imidazo[1,2-a]pyrazine-7(6H)-carboxylate]
4 | 0.01 | CS(=O)(=O)Nc1ccc(OCC(=O)N2CCc3nc4n(c3C2c2ccc(C3CC3)cc2F)CCS4)c(Cl)n1 (stereo not drawn) [Example 4.3.2, N-(6-chloro-5-(2-(5-(4-cyclopropyl-2-fluorophenyl)-2,3,7,8-tetrahydrothiazolo[2′,3′:2,3]imidazo[4,5-c]pyridin-6(5H)-yl)-2-oxoethoxy)pyridin-2-yl)methanesulfonamide]
5 | 0.008 | O=C(COc1ccc(N2CCOCC2)cc1Cl)N1CCc2nc3n(c2C1c1ccc(C2CC2)cc1F)CCN(CC1CC1)C3 (stereo not drawn) [Example 5.2.7, 2-(2-chloro-4-morpholinophenoxy)-1-(1-(4-cyclopropyl-2-fluorophenyl)-7-(cyclopropylmethyl)-3,4,6,7,8,9-hexahydropyrido[4′,3′:4,5]imidazo[1,2-a]pyrazin-2(1H)-yl)ethanone]
6 | 0.018 | CS(=O)(=O)Nc1ccc(OCC(=O)N2CCc3nc4n(c3C2c2ccc(Cl)cc2F)CCOC4)c(Cl)n1 (stereo not drawn) [Example 6.1.2, N-(6-chloro-5-(2-(6-(4-chloro-2-fluorophenyl)-3,4,8,9-tetrahydro-1H-pyrido[4′,3′:4,5]imidazo[2,1-c][1,4]oxazin-7(6H)-yl)-2-oxoethoxy)pyridin-2-yl)methanesulfonamide]
7 | 0.05 | O=C(COc1cccnc1C(F)(F)F)N1CCc2nc3n(c2C1c1ccc(C2CC2)cc1F)CCNC3 (stereo not drawn) [Example 5.2.10, 1-(1-(4-cyclopropyl-2-fluorophenyl)-3,4,6,7,8,9-hexahydropyrido[4′,3′:4,5]imidazo[1,2-a]pyrazin-2(1H)-yl)-2-((2-(trifluoromethyl)pyridin-3-yl)oxy)ethanone]
8 | 0.024 | CC(=O)N1CCn2c(nc3c2C(c2sccc2F)N(C(=O)COc2ccc(C(=O)N(C)C)nc2Cl)CC3)C1 (stereo not drawn) [Example 5.13.2, 5-(2-(7-acetyl-1-(3-fluorothiophen-2-yl)-3,4,6,7,8,9-hexahydropyrido[4′,3′:4,5]imidazo[1,2-a]pyrazin-2(1H)-yl)-2-oxoethoxy)-6-chloro-N,N-dimethylpicolinamide]
9 | 0.016 | CCc1nc(C2CC2)ccc1OCC(=O)N1CCc2nc3n(c2C1c1ccc(Cl)cc1F)CCS3 (stereo not drawn) [Example 4.1.14, 1-(5-(4-chloro-2-fluorophenyl)-2,3,7,8-tetrahydrothiazolo[2′,3′:2,3]imidazo[4,5-c]pyridin-6(5H)-yl)-2-((6-cyclopropyl-2-ethylpyridin-3-yl)oxy)ethanone]

More lines, now with the values behind:

Row | SMILES | IC50 [µM]
10 | O=C(COc1ccc(C2CC2)nc1Cl)N1CCc2nc3n(c2C1c1ccc(Cl)cc1F)CCCC3 (stereo not drawn) [Example 1.1.14, 1-(1-(4-chloro-2-fluorophenyl)-3,4,6,7,8,9-hexahydroimidazo[1,2-a:5,4-c′]dipyridin-2(1H)-yl)-2-((2-chloro-6-cyclopropylpyridin-3-yl)oxy)ethanone] | 0.016
11 | Cc1nc(C)c(C2c3c(nc4n3CCCC4)CCN2C(=O)COc2ccc(C(F)(F)F)cc2Cl)s1 (stereo not drawn) [Example 1.10.11, 2-(2-chloro-4-(trifluoromethyl)phenoxy)-1-(1-(2,4-dimethylthiazol-5-yl)-3,4,6,7,8,9-hexahydroimi-dazo[1,2-a:5,4-c′]dipyridin-2(1H)-yl)ethanone] | 0.132
12 | CCc1nc(C(=O)NC2CC2)ccc1OCC(=O)N1CCc2nc3n(c2C1c1sc(C)nc1C)CCCC3 (stereo not drawn) [Example 1.10.15, N-cyclopropyl-5-(2-(1-(2,4-dimethylthiazol-5-yl)-3,4,6,7,8,9-hexahydroimidazo[1,2-a:5,4-c′]dipyridin-2(1H)-yl)-2-oxoethoxy)-6-ethylpicolinamide] | 0.008
13 | CN(C)S(=O)(=O)c1ccc(OCC(=O)N2CCc3nc4n(c3C2c2ccc(Cl)cc2F)CCCC4)c(Cl)n1 (stereo not drawn) [Example 1.1.29, 6-chloro-5-(2-(1-(4-chloro-2-fluorophenyl)-3,4,6,7,8,9-hexahydroimidazo[1,2-a:5,4-c′]dipyridin-2(1H)-yl)-2-oxoethoxy)-N,N-dimethylpyridine-2-sulfonamide] | 0.129
14 | Cc1ccc(C2c3c(nc4n3CCCCC4)CCN2C(=O)COc2ccc(NS(C)(=O)=O)nc2Cl)c(F)c1 (stereo not drawn) [Example 3.2.1, N-(6-chloro-5-(2-(1-(2-fluoro-4-methylphenyl)-3,4,7,8,9,10-hexahydro-1 H-pyrido[4′,3′:4,5]imidazo-[1,2-a]azepin-2(6H)-yl)-2-oxoethoxy)pyridin-2-yl)methanesulfonamide] | 0.021
15 | CS(=O)(=O)Nc1ccc(OCC(=O)N2CCc3nc4n(c3C2c2ccc(OCCO)cc2F)CCCC4)c(Cl)n1 (stereo not drawn) [Example 1.28.2, N-(6-chloro-5-(2-(1-(2-fluoro-4-(2-hydroxyethoxy)phenyl)-3,4,6,7,8,9-hexahydroimidazo[1,2-a:5,4-c′]dipyridin-2(1H)-yl)-2-oxoethoxy)pyridin-2-yl)methanesulfonamide] | 0.021
16 | CS(=O)(=O)Nc1ccc(OCC(=O)N2CCc3nc4n(c3C2c2ccc(C3CC3)cc2F)CCCC4)c(Cl)n1 (stereo not drawn) [Example 1.8.3, N-(6-chloro-5-(2-(1-(4-cyclopropyl-2-fluorophenyl)-3,4,6,7,8,9-hexahydroimidazo[1,2-a:5,4-c′]dipyridin-2(1H)-yl)-2-oxoethoxy)pyridin-2-yl)methanesulfonamide] | 0.022
17 | Cc1ccc(C2c3c(nc4n3CCCC4)CCN2C(=O)COc2ccc(C(=O)NC3CC3)nc2Cl)c(F)c1F (stereo not drawn) [Example 1.9.8, 6-chloro-N-cyclopropyl-5-(2-(1-(2,3-difluoro-4-methylphenyl)-3,4,6,7,8,9-hexahydroimidazo[1,2-a:5,4-c′]dipyridin-2(1H)-yl)-2-oxoethoxy)picolinamide] | 0.016
18 | O=C(COc1ccc(N2CCOCC2)nc1Cl)N1CCc2nc3n(c2C1c1ccc(Cl)cc1F)CCCC3 (stereo not drawn) [Example 1.1.2, 1-(1-(4-chloro-2-fluorophenyl)-3,4,6,7,8,9-hexahydro-imidazo[1,2-a:5,4-c′]dipyridin-2(1H)-yl)-2-((2-chloro-6-morpholinopyridin-3-yl)oxy)ethanone] | 0.007
19 | CN(C)C(=O)c1ccc(OCC(=O)N2CCc3nc4n(c3C2c2ccc(C3CC3)cc2F)CCCC4)c(Cl)n1 (stereo not drawn) [Example 1.8.4, 6-chloro-5-(2-(1-(4-cyclopropyl-2-fluorophenyl)-3,4,6,7,8,9-hexahydroimidazo[1,2-a:5,4-c′]dipyridin-2(1H)-yl)-2-oxoethoxy)-N,N-dimethylpicolinamide] | 0.011
20 | CS(=O)(=O)Nc1ccc(OCC(=O)N2CCc3nc4n(c3C2c2ccc(C#N)cc2F)CCCC4)c(Cl)n1 (stereo not drawn) [Example 1.22.1, N-(6-chloro-5-(2-(1-(4-cyano-2-fluorophenyl)-3,4,6,7,8,9-hexahydroimidazo[1,2-a:5,4-c′]dipyridin-2(1H)-yl)-2-oxoethoxy)pyridin-2-yl)methanesulfonamide] | 0.048
21 | Cc1nc(C(F)(F)F)sc1C1c2c(nc3n2CCCC3)CCN1C(=O)COc1ccc(NS(C)(=O)=O)nc1Cl (stereo not drawn) [Example 1.18.1, N-(6-chloro-5-(2-(1-(4-methyl-2-(trifluoromethyl)thiazol-5-yl)-3,4,6,7,8,9-hexahydroimidazo[1,2-a:5,4-c′]dipyridin-2(1H)-yl)-2-oxoethoxy)pyridin-2-yl)methanesulfonamide] | 0.126
